Experimental data reported in PMC10160475, “Biological evaluation and in silico studies of novel compounds as potent TAAR1 agonists that could be used in schizophrenia treatment” (Frontiers in Pharmacology, 2023).
pEC50: −log10 of the molar value.

Experiments:
[1] = tested on: MK801-induced schizophrenia-like behavior; assay: MK801-induced schizophrenia-like behavior (open field, distance traveled); assay type: in vivo, C57BI/6J mice
Description: Ninety-nine male C57BI/6J mice were divided randomly into 11 groups. Mice were placed in a room 1 h before testing. They were administered (p.o.) vehicle (0.1 ml/10 g), 50A (0.3, 1, 3, and 10 mg/kg; 0.1 ml/10 g), or 50B (0.3, 1, 3, and 10 mg/kg; 0.1 ml/10 g). […] Then, mice were administered (i.p.) MK801 (0.8 mg/kg dissolved in physiologic saline; 0.1 ml/10 g). After 30 min, the distance that mice traveled was measured.
Forty-six male C57BI/6J mice were divided randomly into four groups. The CN group contained four mice. […] The administration method described previously was employed.

human TAAR1 = target: T1, human TAAR1 (Homo sapiens, UniProt Q96RJ0); assay: cAMP assay, functional agonist activity at human TAAR1; assay type: cell-based
T1 construct: expressed in transfected cells; host or cells: cAMP Hunter CHO-K1 AGTRL1 Gi cells
T1 sequence (Q96RJ0 1-339): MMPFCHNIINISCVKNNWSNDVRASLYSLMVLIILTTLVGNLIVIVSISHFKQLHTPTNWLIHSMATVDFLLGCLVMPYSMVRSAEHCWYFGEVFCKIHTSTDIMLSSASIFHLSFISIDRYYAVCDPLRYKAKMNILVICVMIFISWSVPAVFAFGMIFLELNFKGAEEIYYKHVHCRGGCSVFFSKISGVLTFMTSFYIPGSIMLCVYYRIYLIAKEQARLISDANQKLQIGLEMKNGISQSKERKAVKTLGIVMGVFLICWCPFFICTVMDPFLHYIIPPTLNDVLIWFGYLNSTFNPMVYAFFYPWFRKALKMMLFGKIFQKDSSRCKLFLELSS
Description: Cells were seeded in a total volume of 20 µL into white-walled, 384-well microplates, followed by incubation at 37°C for the appropriate time before testing. Different concentrations of compounds were added to cells, and incubation was undertaken at 37°C for 10 min, with p-tyramine used as the MAX control. cAMP modulation was determined using the DiscoverX HitHunter cAMP XS + assay. Percentage activity was calculated using the following equation: Activity %=mean RLUtest sample – mean RLUvehicle control/mean RLUMAX control – mean RLUvehicle control×100%.

catalepsy = assay: Catalepsy assay (bar test); assay type: in vivo, C57BI/6J mice; settings: 100 mg/kg p.o., 30 and 90 min after administration
Description: Twenty-four male C57BI/6J mice were divided randomly into four groups. Mice were placed in a room 1 h before testing. […] The front paws of mice were placed on a horizontal metal bar raised 2 inches above a Plexiglas™ platform 30 min and 90 min after administration. The time the front paws of mice were placed on the platform was recorded at ≤30 s per trial. Each test was repeated three times.

## O=C1CCc2ccc(OCCCCN3CCN(c4cccc(Cl)c4Cl)CC3)cc2N1 [aripiprazole, reference compound]
[1]; mice, aripiprazole 5 mg/kg p.o., MK801 0.8 mg/kg i.p.
  MK801-induced schizophrenia-like behavior: significantly reduced

## c1csc([C@H]2CNCCO2)c1 [Compound 50A]
[1]; mice, single oral dose 0.3, 1, 3 and 10 mg/kg, MK801 0.8 mg/kg i.p.
  Inhibition of MK801-induced schizophrenia-like behavior (effective doses): only at 1 mg/kg
[1]; single oral dose 0.3, 1, 3 and 10 mg/kg
  Distance moved by mice in the presence or absence of MK801: significantly reduced the distance moved by mice
Human TAAR1
  pEC50: 5.20
Human TAAR1; cAMP modulation, p-tyramine as MAX control, read-out: TAAR1 Agonist % Emax
  Emax: 64%
catalepsy
  Time mice spent holding bars (catalepsy): did not increase this time

## Cc1nc2n(c(=O)c1CCN1CCC(c3noc4cc(F)ccc34)CC1)CCCC2 [risperidone, reference compound]
[1]; mice, risperidone 0.1 mg/kg p.o., MK801 0.8 mg/kg i.p.
  MK801-induced schizophrenia-like behavior: significantly reduced
